In article PMC10631261 (Chemical Science, 2023):
Where two headings read alike, the source gives them in different places.

Experiments:
[1] = target: PHD2 (Homo sapiens, UniProt Q9GZT9); assay: biochemical
Description: (§1) 3. Biochemical procedures
(§2) Protein production and purification
(§3) PAGE analysis) according to established procedures.
(§4) FIH, PHD2, AspH, JMJD5 and KDM4A inhibition assays
(§5) The in vitro FIH,1, 2 PHD2,1 AspH,38 JMJD536 and KDM4A39 inhibition assays were performed as […]
(§6) KDM4A). Synthetic peptide substrates were used: HIF-1α C-terminal transactivation domain fragment […]
(§7) H3Lys9 bearing three methyl groups at the N ϵ position, H3Lys4 substituted by an Ala and H3Lys14 substituted by an Ile residue) for KDM4A.39 Peptides were prepared as C-terminal amides by GL Biochem (Shanghai) Ltd. Peptide hydroxylation in the case of FIH, PHD2, AspH and JMJD5 (+16 Da mass shift) or peptide demethylation in the case of KDM4A ( -14 Da mass shift) was monitored by SPE-MS. […]

[2] = target: T1, AspH (Homo sapiens, UniProt Q12797); assay: biochemical
Source text: (§8) To investigate the potential of BNS for selective FIH inhibition, its selectivity was investigated with respect to other 2OG-dependent protein oxidising enzymes, that is PHD2, Jumonji-C domain-containing protein 5 (JMJD5), aspartate/asparagine-β-hydroxylase (AspH) and KDM4A, using reported SPE-MS inhibition assays.[58,61,69,70] In addition to PHD2 and KDM4A, we included AspH and JMJD5 in our selectivity studies, because AspH, like FIH, catalyses protein aspartate- and asparagine-residue hydroxylation (although in epidermal growth factor-like domains),[71,72] and because JMJD5 is structurally closely related to FIH.[73,74]
as §1, §2, §3, §4, §5, §6, §7

[3] = target: JMJD5 (Homo sapiens, UniProt Q8N371); assay: biochemical
Source text: as §8, §1, §2, §3, §4, §5, §6, §7

[4] = target: KDM4A (Homo sapiens, UniProt O75164); assay: biochemical; assay type: biochemical
Source text: as §8, §1, §2, §3, §4, §5, §6, §7

[5] = target: T2, FIH (Homo sapiens, UniProt Q9NWT6); assay: SPE-MS FIH inhibition assay; assay type: biochemical
T2 construct: made in house
Description: as §2, §3, §4, §5, §6, §7

[6] = target: T1, AspH; conditions: SPE-MS; ref [58]; cited from earlier work
[7] = test system: 3T3-L1 derived adipocytes; assay: Cellular triglyceride (TG) colorimetric assay; assay type: cell-based; conditions: 20 μM
Description: 4. Methods for cell studies […]
in Minimum Essential Medium (MEM, GIBCO) with 10% fetal bovine serum (FBS, BI), 100 U/mL penicillin and 100 μg/mL streptomycin (1 × P/S, NCM Biotech). […]
and 100 μg/mL streptomycin (1 × P/S, NCM Biotech). […]
3T3-L1 derived adipocytes.
10% newborn calf serum (NCS, GIBCO), 100 U/mL penicillin and 100 μg/mL streptomycin (1 × P/S, NCM […]
The 3T3-L1 cells were strictly subcultured before they
Subcultures of 3T3 -L1 cells were routinely cultured in DMEM medium containing 10% NCS for two days, and then the cells were cultured in DMEM containing 10% FBS, 0.5 mM 3 -isobutyl-1-methylxanthine, 1 μM dexamethasone, 10 μg/mL insulin and 2 μM rosiglitazone for another two days. Subsequently, the cells were cultured in DMEM containing 10% FBS and 10 μg/mL insulin for two days. After these procedures, the cells were maintained in […]
To investigate the effect of inhibitors on adipocytes, 3T3-L1-derived adipocytes were treated with vehicle (DMSO) or with an inhibitor (at the concentrations indicated) for 48 h. […]
Cellular TG level assay for 3T3 -L1 derived adipocytes.
The 3T3-L1-derived adipocytes were washed with PBS, then the cells were lysed. And then, the cellular TG level was determined by using a cellular triglyceride assay kit (Applygen, China).
Oil Red O staining for 3T3-L1 derived adipocytes.

T1 sequence (Q12797 315-758): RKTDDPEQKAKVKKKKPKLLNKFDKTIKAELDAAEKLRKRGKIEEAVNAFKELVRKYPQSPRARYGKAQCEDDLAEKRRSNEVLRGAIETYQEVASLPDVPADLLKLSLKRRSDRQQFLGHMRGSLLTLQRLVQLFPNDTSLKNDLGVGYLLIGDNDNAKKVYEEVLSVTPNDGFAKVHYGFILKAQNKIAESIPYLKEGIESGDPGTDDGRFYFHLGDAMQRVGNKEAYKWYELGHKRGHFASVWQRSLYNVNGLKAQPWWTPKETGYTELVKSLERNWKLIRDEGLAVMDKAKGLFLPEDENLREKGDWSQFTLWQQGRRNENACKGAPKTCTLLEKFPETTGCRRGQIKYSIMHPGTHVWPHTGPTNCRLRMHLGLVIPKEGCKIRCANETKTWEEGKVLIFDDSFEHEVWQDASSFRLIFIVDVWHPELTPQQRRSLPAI
T2 sequence (Q9NWT6 whole entry): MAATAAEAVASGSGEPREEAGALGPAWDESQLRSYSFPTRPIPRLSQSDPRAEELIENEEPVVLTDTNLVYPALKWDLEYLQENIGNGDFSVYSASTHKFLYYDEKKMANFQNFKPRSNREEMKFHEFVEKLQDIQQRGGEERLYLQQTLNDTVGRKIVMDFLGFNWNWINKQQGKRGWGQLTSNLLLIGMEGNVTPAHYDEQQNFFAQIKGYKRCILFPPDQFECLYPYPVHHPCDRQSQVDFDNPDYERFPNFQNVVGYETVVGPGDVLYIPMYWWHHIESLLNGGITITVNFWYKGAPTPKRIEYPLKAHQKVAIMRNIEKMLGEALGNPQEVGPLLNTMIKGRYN
KDM4A, sequence (O75164 1-359): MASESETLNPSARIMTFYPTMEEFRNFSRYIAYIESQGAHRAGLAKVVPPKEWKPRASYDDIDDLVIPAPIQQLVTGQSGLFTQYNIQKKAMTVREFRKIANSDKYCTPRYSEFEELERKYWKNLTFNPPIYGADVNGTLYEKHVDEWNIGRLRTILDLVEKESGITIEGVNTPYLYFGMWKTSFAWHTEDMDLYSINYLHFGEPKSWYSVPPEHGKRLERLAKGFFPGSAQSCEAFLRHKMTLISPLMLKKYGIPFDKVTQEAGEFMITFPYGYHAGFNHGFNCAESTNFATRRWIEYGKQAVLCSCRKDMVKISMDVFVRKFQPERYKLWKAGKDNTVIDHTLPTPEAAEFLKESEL
JMJD5, sequence (Q8N371 whole entry): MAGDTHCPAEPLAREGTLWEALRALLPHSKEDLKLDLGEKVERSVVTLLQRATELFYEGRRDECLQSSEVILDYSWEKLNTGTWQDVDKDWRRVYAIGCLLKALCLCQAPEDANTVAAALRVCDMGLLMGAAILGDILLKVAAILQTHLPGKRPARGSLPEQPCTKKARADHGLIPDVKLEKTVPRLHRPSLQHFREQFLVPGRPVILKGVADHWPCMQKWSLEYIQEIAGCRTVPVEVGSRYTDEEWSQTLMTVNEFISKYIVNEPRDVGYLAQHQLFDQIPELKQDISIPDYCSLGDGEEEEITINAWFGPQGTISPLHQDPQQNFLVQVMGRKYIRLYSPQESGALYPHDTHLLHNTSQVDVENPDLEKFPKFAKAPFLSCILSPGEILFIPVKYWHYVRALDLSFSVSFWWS
PHD2, sequence (Q9GZT9 181-426): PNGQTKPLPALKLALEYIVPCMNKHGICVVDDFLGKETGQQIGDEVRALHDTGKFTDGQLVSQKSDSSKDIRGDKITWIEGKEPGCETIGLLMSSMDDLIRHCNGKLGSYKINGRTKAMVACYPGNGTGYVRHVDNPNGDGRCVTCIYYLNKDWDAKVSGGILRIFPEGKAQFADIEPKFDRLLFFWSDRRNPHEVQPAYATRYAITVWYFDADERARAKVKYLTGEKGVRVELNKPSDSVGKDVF

## O=C(O)CCc1cs/c(=N\C(=O)CS(=O)(=O)c2ccccc2)n1O (hydrate or solvate) [compound 13]
other
  melting point: 173 to 176 °C

## O=C(O)Cc1cs/c(=N\C(=O)CCNC(=O)c2ccccc2)n1O [compound 17]
[1]
  IC50: 3.6 ± 0.4 µM
[2]
  IC50: 28.3 ± 6.5 µM
[3]
  IC50: 4.6 ± 1.7 µM
[4]
  IC50: > 100 µM
other
  melting point: 180 to 183 °C
[5]
  IC50: 4.6 ± 0.7 µM
[5]; IC50 comparison with compound 20
  loss in FIH inhibition relative to 20: ~5 fold

## CC1(C(=O)/N=c2\scc(CC(=O)O)n2O)CCN(S(=O)(=O)c2ccccc2)C1 (stereo not shown) (hydrate or solvate) [compound 29]
other
  melting point: 158 to 161 °C

## O=C(O)Cc1cs/c(=N\C(=O)C2CN(S(=O)(=O)c3ccccc3)C2)n1O [compound 24]
[1]
  IC50: 5.2 ± 0.7 µM
[2]
  IC50: 60.9 ± 24.1 µM
[3]; read-out: JMJD5 IC50
  IC50: 29.1 ± 4.4 µM
[4]
  IC50: > 100 µM
other
  melting point: 170 to 173 °C
[5]
  IC50: 0.45 ± 0.17 µM
[5]; as judged by IC50 values
  selectivity for FIH inhibition over PHD2 inhibition: 12 fold

## O=C(O)CNC(=O)C(=O)O [NOG, N-oxalylglycine, reference compound]
[4]; 0.15 μM KDM4A, 10.0 μM 2OG, 10.0 μM H3 1–15 K9me3, SPE-MS
  IC50: 22.1 ± 1.1 µM
[6]
  IC50: 1.1 ± 0.3 µM
[5]
  IC50: 0.36 ± 0.03 µM

## O=C(O)Cc1cs/c(=N\C(=O)C2CCCN2S(=O)(=O)c2ccccc2)n1O (stereo not shown) (hydrate or solvate) [compound 28]
other
  melting point: > 190 °C (dec.)

## COc1ccc(S(=O)(=O)N2CCC(C(=O)N=c3scc(CC(=O)O)n3O)C2)cc1 (stereo not shown) (hydrate or solvate) [compound 36]
other
  melting point: 180 to 183 °C

## CC[C@H]1[C@@H](O)[C@@H]2[C@H](CC[C@]3(C)[C@@H]([C@H](C)CCC(=O)O)CC[C@@H]23)[C@@]2(C)CC[C@@H](O)C[C@@H]12 [obeticholic acid]
[7]
  reduction in cellular TG levels: 25%

## O=C(O)Cc1csc(=NC(=O)C2CCN(S(=O)(=O)c3ccc(C(F)(F)F)cc3)C2)n1O (stereo not shown) (hydrate or solvate) [compound 37]
other
  melting point: 183 to 185 °C

## O=C(O)Cc1csc(=NC(=O)C2CCN(S(=O)(=O)c3ccc(Cl)cc3)C2)n1O (stereo not shown) (hydrate or solvate) [compound 35]
other
  melting point: 195 to 197 °C

## O=C(O)Cc1cs/c(=N\C(=O)CCNS(=O)(=O)c2ccccc2)n1O (hydrate or solvate) [compound 20]
other
  melting point: 178 to 180 °C
